Measurements reported in the CheMixHub viscosity set.

Assay: xn = mol fraction of the nth substance listed

C[N+](C)(C)CCC[N+]1(C)CCCCC1.N#C[N-]C#N.N#C[N-]C#N + CC#N
viscosity [mPa·s], 100 kPa
Conditions	x1 = 0.0999	x1 = 0.7001	x1 = 0.7996
298.15 K	–	–	895.3
318.15 K	2.675	163.5	–

CCCC[P+](C)(CCCC)CCCC.COS(=O)(=O)[O-] + CN(C)C=O
100 kPa
Conditions	viscosity [mPa·s]
293.15 K, x1 = 0.4272	67.15
303.15 K, x1 = 0.8837	286.5
318.15 K, x1 = 0.6717	59.15
323.15 K, x1 = 0.7768	84.15

C=C(C)C(=O)OC + CCC(C)O
viscosity [mPa·s], 101.3 kPa
Conditions	298.15 K	308.15 K
x1 = 0.0597	2.462	2.057
x1 = 0.1551	1.779	1.481
x1 = 0.255	1.32	1.097
x1 = 0.3562	1.022	0.848
x1 = 0.4561	0.83	0.688
x1 = 0.5021	0.766	0.635
x1 = 0.5571	0.704	0.584
x1 = 0.6562	0.626	0.52
x1 = 0.7557	0.581	0.484
x1 = 0.8552	0.564	0.472
x1 = 0.9549	0.572	0.481

C=C(C)C(=O)OC + CCCCCC
303.15 K, 101 kPa
Conditions	viscosity [mPa·s]
x1 = 0.1029	0.2962
x1 = 0.2077	0.3069
x1 = 0.4005	0.3338
x1 = 0.5052	0.3523
x1 = 0.6046	0.3758
x1 = 0.7056	0.4934

CCCCC/C=C\C/C=C\CCCCCCCC(=O)OCC(COC(=O)CCCCCCC/C=C\C/C=C\CCCCC)OC(=O)CCCCCCC/C=C\C/C=C\CCCCC + c1ccccc1
viscosity [mPa·s], 101.3 kPa
Conditions	x1 = 0.000427	x1 = 0.000515	x1 = 0.000838	x1 = 0.001044	x1 = 0.001751	x1 = 0.004505	x1 = 0.007049	x1 = 0.009645
298.15 K	0.6136	0.6153	0.6216	0.6257	0.6401	0.6974	0.7485	0.8054
303.15 K	0.5723	0.5739	0.5797	0.5836	0.597	0.6502	0.6975	0.7492
308.15 K	0.535	0.5365	0.5419	0.5455	0.558	0.6077	0.6515	0.6986

C=C(C)C(=O)OC + Cc1ccccc1
303.15 K, 101 kPa
Conditions	viscosity [mPa·s]
x1 = 0.1041	0.5201
x1 = 0.2049	0.5187
x1 = 0.4069	0.5163
x1 = 0.5046	0.5155
x1 = 0.6068	0.5148
x1 = 0.798	0.5141
x1 = 0.896	0.5141

C=C(C)C(=O)OC + CC(C)O
viscosity [mPa·s], 101.3 kPa
Conditions	298.15 K	308.15 K
x1 = 0.0556	1.716	1.339
x1 = 0.1557	1.314	1.051
x1 = 0.2605	1.034	0.845
x1 = 0.3541	0.862	0.717
x1 = 0.4318	0.76	0.638
x1 = 0.5041	0.689	0.583
x1 = 0.5537	0.651	0.553
x1 = 0.6557	0.596	0.509
x1 = 0.7561	0.567	0.484
x1 = 0.8542	0.559	0.477
x1 = 0.9512	0.571	0.483

ClCCCCCCCl + Cc1ccccc1
viscosity [mPa·s], 101 kPa
Conditions	x1 = 0.07864	x1 = 0.1578	x1 = 0.2467	x1 = 0.3346	x1 = 0.4309	x1 = 0.533	x1 = 0.6475	x1 = 0.755	x1 = 0.8707
308.15 K	0.536	0.604	0.676	0.764	0.868	0.978	1.121	1.267	1.44
313.15 K	0.514	0.57	0.639	0.712	0.807	0.911	1.043	1.175	1.345
318.15 K	0.49	0.543	0.605	0.682	0.769	0.865	0.983	1.095	1.228

[I-].[Na+] + O
310.15 K, 101 kPa
Conditions	viscosity [mPa·s]
x1 = 0.000186	0.7003
x1 = 0.000929	0.6978
x1 = 0.001834	0.6993
x1 = 0.002695	0.7053
x1 = 0.003679	0.7179
x1 = 0.005197	0.749
x1 = 0.005988	0.7709

C=C(C)C(=O)OC + COCCO
viscosity [mPa·s], 101.3 kPa
Conditions	298.15 K	308.15 K
x1 = 0.0557	1.449	1.149
x1 = 0.1541	1.237	1.01
x1 = 0.2554	1.068	0.892
x1 = 0.3538	0.941	0.799
x1 = 0.4561	0.836	0.72
x1 = 0.4992	0.799	0.691
x1 = 0.553	0.759	0.658
x1 = 0.6543	0.696	0.606
x1 = 0.7542	0.65	0.564
x1 = 0.8539	0.616	0.529
x1 = 0.9543	0.592	0.502
